“And” between values parts separate entries of the source, which are not always exact repeats. Identical values can stand only once. Each block holds one molecule with its values, some of them ahead of it. Bridge positions count the residues as written; N and C are the ends. Ends that are not written are not given here. Peptide text beside a SMILES is read from it. * marks the point of attachment. 125I = [125I]*
Legend:
[1] = tested on: CHO cells stably transfected with a nGPCR-x expression vector; assay: Intracellular calcium measurement using FLIPR, positive controls; assay type: cell-based, Chinese Hamster; conditions: A23187 10 μM, ATP 4 μM
Experimental: Changes in intracellular calcium levels are another recognized indicator of G protein-coupled receptor activity, and such assays can be employed to screen for modulators of nGPCR-x activity. For example, CHO cells stably transfected with a nGPCR-x expression vector are plated at a density of 4×10^4 cells/well in Packard black-walled, 96-well plates specially designed to discriminate fluorescence signals emanating from the various wells on the plate. The cells are incubated for 60 minutes at 37 C. in modified Dulbecco's PBS (D-PBS) containing 36 mg/L pyruvate and 1 g/L glucose with the addition of 1% fetal bovine serum and one of four calcium indicator dyes (Fluo-3™ AM, Fluo-4™ AM, Calcium Green™-1 AM, or Oregon Green™ 488 BAPTA-1 AM), each at a concentration of 4 μM. […]
A calcium response is initiated by the addition of one or more candidate receptor agonist compounds, calcium ionophore A23187 (10 μM; positive control), or ATP (4 μM; positive control). Fluorescence is measured by Molecular Device's FLIPR with an argon laser (excitation at 488 nm). […] Basal fluorescence of cells was measured for 20 seconds prior to addition of candidate agonist, ATP, or A23187, and the basal fluorescence level was subtracted from the response signal. The calcium signal is measured for approximately 200 seconds, taking readings every two seconds. […]

nGPCR-51 [2] = target: T1, nGPCR-51 (Homo sapiens, UniProt Q969V1); assay: Aequorin luminescence assay, COS 7 cells co-transfected with nGPCR-51 and mtAequorin; assay type: cell-based; conditions: nGPCR-51 expressing COS 7 cells
T1 construct: expressed in transfected cells
T1 sequence (Q969V1 whole entry): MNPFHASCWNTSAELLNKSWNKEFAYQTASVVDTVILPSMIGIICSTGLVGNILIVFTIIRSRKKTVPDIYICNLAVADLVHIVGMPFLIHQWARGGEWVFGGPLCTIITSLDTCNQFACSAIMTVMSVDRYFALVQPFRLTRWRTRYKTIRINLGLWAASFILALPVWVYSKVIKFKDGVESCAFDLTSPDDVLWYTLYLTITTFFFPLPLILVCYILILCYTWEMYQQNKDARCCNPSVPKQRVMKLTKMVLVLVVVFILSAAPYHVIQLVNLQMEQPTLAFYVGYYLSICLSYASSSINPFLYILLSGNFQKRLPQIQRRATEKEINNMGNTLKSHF
Experimental: Agonist activation of receptors that couple to the Gq subtype of G proteins will lead to the release of intracellular calcium. The photoprotein aequorin emits a characteristic luminescence in the presence of calcium and may be expressed in cells along with the receptor of interest in order to report agonist signalling. Peptide A was tested for the ability to activate nGPCR-51 using an assay for aequorin. Peptide A, a cyclic peptide via a disulfide bond between the Cys residues, has the following amio acid sequence: Asp Phe Asp Met Leu Arg Cys Met Leu Gly Arg Val Tyr Arg Pro Cys Trp Gln Val (SEQ ID NO: 183). Preferably, Peptide A is used in a solution containing 0.17M acetic acid, or the like, and a stabilizer such as a 0.2% BSA:acetonitrile 90:10. […] After the coelenterazine loading incubation, the cells are counted and diluted to 1×10^6 cells/ml in assay buffer. […] The instrument is programmed to dispense 50 μl cell suspension into each well, one well at a time, and immediately read luminescence for 20 seconds. […] Data are analyzed with SlideWrite, using the equation y=a^0*a^1/(x+a^1)+a^2 where a^0 is the maximum response minus the baseline; a^1 is the EC50; and a^2 is the […].

nGPCR-51 [3] = target: T1, nGPCR-51; assay: NFkB-Luciferase reporter gene assay, nGPCR-51 (Seq51)-transfected N7 (HOS) cells; assay type: cell-based; conditions: 5-hr incubation, 2 separate experiments, read-out: EC50, luciferase expression
Experimental: nGPCR-51 was transfected in N7 cells, stable HOS (human osteosarcoma) cells expressing NFkB-Luciferase reporter gene Briefly, LipofectAMINE, PLUS reagent, and 4 μg DNA were added to cells in Opti-MEM. After 4 hours, serum-containing medium was added to each plate. Twenty-four hour after transfection the cells were trypsinized and seeded in COSTAR white 96-well plate at a cell density of about 20,000 cells per well. Another 24 hours later the culture medium was replaced with fresh growth medium and Peptide A was added. After 5-hr incubation with Peptide A, the medium was aspirated and 100 μL diluted Steady Glo was added. The plates were gently shake at room temperature for 30 minutes and luminescence determined by TopCount at the SPC mode.

nGPCR-51 [4] = target: T1, nGPCR-51; assay: Intracellular calcium measurement using FLIPR, nGPCR-51-transfected HEK293 cells; assay type: cell-based; conditions: fluo-4, FLIPR, read-out: EC50, calcium mobilization
Experimental: (§1) HEK293 cells were transiently transfected with an expression vector for nGPCR-51 and empty vector using Lipofectamine plus (Gibco) according to the manufacturer's instructions. The next day, the cells were seeded into 96-well plates at 25,000 cells per well. The following day, cells were loaded with 1 uM Fluo-4-acetoxymethyl fluorescent indicator dye (Molecular Probes) in MEM (minimal essential media) containing 0.1% bovine serum albumin, 0.04% pluronic acid and 2.5 mM probenecid for 30 minutes at 37 C. The cells were washed with pre-warmed (37 C.) assay buffer (Hanks buffer containing 15 mM HEPES, 2.5 mM probenecid and 0.1% bovine serum albumin). Assay buffer (100 ul) was added to each well and plates were incubated at 37 C. for 15 minutes. Various concentrations (0.03 pM-10 nM) of human Peptide A or salmon Peptide B were added and fluorescence produced by fluo-4 (a calcium sensitive dye) was measured every second for 150 seconds on a fluorometric imaging plate reader (FLIPR1; Molecular Devices). Human Peptide A and salmon Peptide B-induced calcium mobilization in nGPCR-51-transfected cells with EC50 values of 3 nM and 6 nM, respectively. Human Peptide A and salmon Peptide B had no effect on vector-transfected cells.

vector-transfected cells = assay: Intracellular calcium measurement using FLIPR, empty vector control HEK293 cells; assay type: cell-based, human; conditions: 0.03 pM-10 nM
Experimental: as §1

[5] = intracerebroventricular injection; cited from earlier work
[6] = in vivo; cited from earlier work
[7] = central injections in rats; cited from earlier work
[8] = injections into the medial preoptic area of the hypothalamus of rats; cited from earlier work
[9] = injections of the peptide; cited from earlier work
[10] = intracerebroventricular injection, rats; cited from earlier work
SLC-1 gene product = conditions: cited from earlier work
nGPCR-51 [11] = target: T2, nGPCR-51 (human (H. sapiens), UniProt Q969V1 1-340); assay: cell-based or functional assay
T2 sequence (Q969V1 whole entry): as above

nGPCR-51 [12] = target: T2, nGPCR-51; assay: saturation radioligand binding, membranes of COS 7 cells transiently expressing nGPCR-51, filtration
Experimental: HEK 293 or COS 7 cells transiently expressing nGPCR-51, or CHO K-I cells stable expressing nGPCR-51, were grown to sub-confluence (2 days post-transfection for transients), harvested from flasks in Dulbecco's PBS and pelleted by low speed centrifugation (2500 rpm) for 10 minutes. Cell pellets were homogenized in 10 ml tissue buffer (50 mM Hepes, 10 mM MgCl₂, 2 mM EGTA, 1 μg/ml aprotinin, 1 μg/ml leupeptin hemisulfate, 1 μg/ml pepstatin A, pH 7.0) using a dounce, 10 strokes. Homogenate was centrifuged at 47,000× g for 15 minutes. Membrane pellet was resuspended in 1 ml tissue buffer using the dounce, 10 strokes. An aliquot of the membrane preparation was used to determine protein concentration. For measurement of saturation binding, 10 μg of cell membranes were incubated with various concentrations of [¹²⁵I] Peptide A (iodinated by routine procedures via the Tyr residue) in 300 μl binding assay buffer (tissue buffer plus 0.15 mM Bacitracin and 0.1% ovalbumin) for 90 minutes at room temperature in 96-well plates. Non-specific binding was defined by the inclusion of 1 μM Peptide A. After the binding incubation, plates were harvested onto GF/C filters presoaked in 0.3% non-fat dry milk. […] Filter plates were then counted in a Packard Topcount™ 96-well microplate scintillation counter. Data were analyzed using GraphPad Prism (San Diego, Calif.) and Kd and Bmax values were calculated. […]

Molecule: Nc1ncnc2c1ncn2[C@@H]1O[C@H](COP(=O)(O)OP(=O)(O)OP(=O)(O)O)[C@@H](O)[C@H]1O [ATP]
increase of calcium signal above baseline levels [1]: 200%

Molecule: CNc1ccc2oc(C[C@H]3O[C@@]4(CC[C@H]3C)O[C@H]([C@H](C)C(=O)c3ccc[nH]3)[C@H](C)C[C@H]4C)nc2c1C(=O)O [Peptide A23187]
increase of calcium signal above baseline levels [1]: 200%

Molecule: CSCC[C@@H]1NC(=O)[C@@H](NC(=O)[C@H](CCCNC(=N)N)NC(=O)[C@H](CC(C)C)NC(=O)[C@H](CCSC)NC(=O)[C@H](CC(=O)O)NC(=O)[C@H](Cc2ccccc2)NC(=O)[C@@H](N)CC(=O)O)CSSC[C@@H](C(=O)N[C@@H](Cc2c[nH]c3ccccc23)C(=O)N[C@@H](CCC(N)=O)C(=O)N[C@H](C(=O)O)C(C)C)NC(=O)[C@@H]2CCCN2C(=O)[C@H](CCCNC(=N)N)NC(=O)[C@H](Cc2ccc(O)cc2)NC(=O)[C@H](C(C)C)NC(=O)[C@H](CCCNC(=N)N)NC(=O)CNC(=O)[C@H](CC(C)C)NC1=O [Peptide A, Asp Phe Asp Met Leu Arg Cys Met Leu Gly Arg Val Tyr Arg Pro Cys Trp Gln Val]
EC50 (nGPCR-51 [2]): ~40 nM | maximum response, aequorin luminescence (nGPCR-51 [2]): 52 fold over baseline | EC50 (nGPCR-51 [3]): 1.6 nM and 1.7 nM | EC50 (nGPCR-51 [4]): 3 nM | effect on calcium mobilization in vector-transfected cells (vector-transfected cells): no effect | conditioning amplitude of the second of a pair of auditory evoked potentials recorded from the hippocampus [5]: decrease in the conditioning amplitude | effect on increases in the conditioning amplitude induced by alpha MSH [5]: reverses the increases in the conditioning amplitude | passive avoidance performance [6]: alter passive avoidance performance | peak circadian ACTH levels [7]: reduction in peak circadian ACTH levels | stress-induced ACTH secretion [7]: inhibit stress-induced ACTH secretion | time spent in open arms, elevated plus maze [8]: decreases in time spent in open arms | female sexual receptivity [9]: stimulated female sexual receptivity | food intake [10]: increase in food intake | activation of SLC-1 G-protein coupled receptor (SLC-1 gene product): potently activated

Molecule: DFDMLRCMLGRVYRPCWQV (disulfide 7-16 (inferred)) [Peptide A]
aequorin luminescence, EC50 (nGPCR-51 [11]): ~40 nM | aequorin luminescence, maximum response (nGPCR-51 [11]): 52 fold over baseline | calcium mobilization (FLIPR, fluo-4, HEK293 cells), EC50 (nGPCR-51 [11]): 3 nM

Continued, in another order:

EC50 (nGPCR-51 [3]): ~25 nM | EC50 (nGPCR-51 [4]): 6 nM
Molecule: CSCC[C@@H]1NC(=O)[C@@H](NC(=O)[C@H](CCCNC(=N)N)NC(=O)[C@H](CCSC)NC(=O)[C@@H](NC(=O)[C@@H](N)CC(=O)O)[C@@H](C)O)CSSC[C@@H](C(=O)N[C@@H](Cc2c[nH]c3ccccc23)C(=O)N[C@@H](CCC(=O)O)C(=O)N[C@H](C(=O)O)C(C)C)NC(=O)[C@@H]2CCCN2C(=O)[C@H](CCCNC(=N)N)NC(=O)[C@H](Cc2ccc(O)cc2)NC(=O)[C@H](C(C)C)NC(=O)[C@H](CCCNC(=N)N)NC(=O)CNC(=O)[C@H](C(C)C)NC1=O [salmon Peptide B, Asp Thr Met Arg Cys Met Val Gly Arg Val Tyr Arg Pro Cys Trp Glu Val] (HELM PEPTIDE1{D.T.M.R.C.M.V.G.R.V.Y.R.P.C.W.E.V}$PEPTIDE1,PEPTIDE1,5:R3-14:R3$$$V2.0; N-terminus and C-terminus assumed)
effect on calcium mobilization in vector-transfected cells (vector-transfected cells): no effect

calcium mobilization (FLIPR, fluo-4, HEK293 cells), EC50 (nGPCR-51 [11]): 6 nM | luciferase expression (NFkB-Luciferase reporter, N7 cells), EC50 (nGPCR-51 [11]): ~25 nM
Molecule: DTMRCMVGRVYRPCWEV [Salmon Peptide B]

Kd (nGPCR-51 [12]): 0.254 nM
Molecule: DFDMLRCMLGRVY(125I)RPCWQV (disulfide 7-16 (inferred)) [[^125I] Peptide A]
